# Activity calls are given as the source filed them.
# Experiments:
# [1] = target: T1, Microphthalmia-associated transcription factor (Homo sapiens, UniProt O75030); test: reducers of TRPM1 reporter luminescence, concentration series – cell-based, SK-MEL-5, cherry-picked, set 3, MITF inhibitor project, dose response (AID 493073); format: functional;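 note: SK-MEL-5 melanoma cells with luciferase driven by the MITF target TRPM1 promoter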
# T1 sequence (O75030 whole entry): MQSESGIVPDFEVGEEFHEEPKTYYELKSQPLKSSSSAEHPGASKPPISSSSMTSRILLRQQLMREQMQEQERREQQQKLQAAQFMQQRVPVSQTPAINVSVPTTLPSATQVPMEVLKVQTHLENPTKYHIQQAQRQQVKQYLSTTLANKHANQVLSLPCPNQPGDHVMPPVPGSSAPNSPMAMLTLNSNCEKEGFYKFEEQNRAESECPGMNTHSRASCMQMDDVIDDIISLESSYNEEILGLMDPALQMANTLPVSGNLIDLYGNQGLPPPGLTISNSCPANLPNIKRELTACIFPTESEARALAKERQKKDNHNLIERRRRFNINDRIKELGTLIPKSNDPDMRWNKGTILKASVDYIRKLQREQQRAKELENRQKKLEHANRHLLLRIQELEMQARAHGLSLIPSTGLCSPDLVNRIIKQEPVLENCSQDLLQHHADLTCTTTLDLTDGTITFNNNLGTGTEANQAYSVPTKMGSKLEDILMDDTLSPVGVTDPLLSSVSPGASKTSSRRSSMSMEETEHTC
# [2] = target: T2, Ubiquitin-conjugating enzyme E2 N (Homo sapiens, UniProt P61088); format: functional;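 note: Dose-response confirmation in a TR-FRET assay detecting UBC13-driven polyubiquitin chain formation, inhibition measured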
# T2 sequence (P61088 whole entry): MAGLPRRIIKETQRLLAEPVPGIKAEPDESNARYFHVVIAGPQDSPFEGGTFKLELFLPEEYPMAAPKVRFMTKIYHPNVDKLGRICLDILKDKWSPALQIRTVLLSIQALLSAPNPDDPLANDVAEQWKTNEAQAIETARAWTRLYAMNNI
# Streptokinase A = target: T3, Streptokinase A (Streptococcus pyogenes serotype M1, UniProt P10520); test: viability-normalized secreted streptokinase activity reduction – plasminogen activation absorbance, OD405, dose response (AID 1914); format: functional, Streptococcus pyogenes M1 GAS;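 note: secreted streptokinase activity via plasminogen activation per viability signal from cell pellet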
# T3 sequence (P10520 whole entry): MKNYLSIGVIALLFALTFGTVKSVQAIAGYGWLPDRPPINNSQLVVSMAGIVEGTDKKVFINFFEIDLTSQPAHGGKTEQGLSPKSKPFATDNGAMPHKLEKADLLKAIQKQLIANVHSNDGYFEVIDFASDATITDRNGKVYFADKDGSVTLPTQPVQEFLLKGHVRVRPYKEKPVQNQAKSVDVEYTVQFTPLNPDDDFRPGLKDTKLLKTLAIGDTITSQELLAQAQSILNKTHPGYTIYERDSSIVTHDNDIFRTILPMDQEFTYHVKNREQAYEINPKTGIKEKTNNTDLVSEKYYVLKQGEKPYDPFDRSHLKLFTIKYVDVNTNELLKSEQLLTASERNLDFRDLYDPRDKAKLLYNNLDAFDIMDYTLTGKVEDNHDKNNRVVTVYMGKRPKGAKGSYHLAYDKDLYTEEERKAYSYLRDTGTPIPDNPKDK
# Streptococcus = test: GAS UMAA2166 growth inhibition – luminescence, BacTiterGlo, counter-screen for streptokinase expression inhibitor project, dose response (AID 1915); format: functional, organism-based;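 note: potency for reduction of bacterial viability or growth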
# [3] = system: Streptococcus sp. 'group A'; test: Streptococcus pyogenes SK(-)GAS viability under kanamycin – luminescence, BacTiterGlo, confirmation, counter-screen for streptokinase expression inhibitor project, dose response (AID 1900); format: functional, organism-based
# [4] = target: Disintegrin and metalloproteinase domain-containing protein 17 (Homo sapiens, UniProt P78536); test: inhibition of ADAM17 substrate cleavage – biochemical, quenched FRET substrate, counter-screen for ADAM10 exosite inhibitor project, dose response (AID 743253)
# Disintegrin and metalloproteinase domain-containing protein 17, sequence (P78536 whole entry, the tested form may be a part): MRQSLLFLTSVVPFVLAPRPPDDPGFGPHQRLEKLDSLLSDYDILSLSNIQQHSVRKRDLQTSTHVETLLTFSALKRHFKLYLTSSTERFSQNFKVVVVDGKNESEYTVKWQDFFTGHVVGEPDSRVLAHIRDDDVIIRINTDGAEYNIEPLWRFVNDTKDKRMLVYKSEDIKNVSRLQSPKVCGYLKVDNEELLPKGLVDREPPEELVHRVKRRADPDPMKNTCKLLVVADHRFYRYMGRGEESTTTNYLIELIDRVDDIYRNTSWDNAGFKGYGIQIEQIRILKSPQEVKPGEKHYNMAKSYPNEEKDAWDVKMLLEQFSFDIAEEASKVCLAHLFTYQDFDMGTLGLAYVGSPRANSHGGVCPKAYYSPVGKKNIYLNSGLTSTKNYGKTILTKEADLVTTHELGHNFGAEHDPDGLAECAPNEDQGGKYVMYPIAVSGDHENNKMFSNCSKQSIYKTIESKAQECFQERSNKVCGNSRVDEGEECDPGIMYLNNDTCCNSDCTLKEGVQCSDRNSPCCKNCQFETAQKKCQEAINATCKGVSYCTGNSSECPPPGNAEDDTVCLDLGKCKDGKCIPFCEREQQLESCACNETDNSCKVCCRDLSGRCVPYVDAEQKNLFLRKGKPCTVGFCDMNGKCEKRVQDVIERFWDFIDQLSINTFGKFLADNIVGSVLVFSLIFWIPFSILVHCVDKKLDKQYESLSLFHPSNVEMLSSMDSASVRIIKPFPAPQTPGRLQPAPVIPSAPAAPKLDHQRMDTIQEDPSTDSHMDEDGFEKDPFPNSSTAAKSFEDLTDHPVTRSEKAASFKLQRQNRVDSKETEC
# Leucine aminopeptidase = target: T4, Leucine aminopeptidase (Plasmodium falciparum 3D7, UniProt Q8IL11); test: P. falciparum M17LAP inhibitors, primary screen, biochemical, fluorogenic H-Leu-NHMec substrate, 1536-well (AID 1619); format: functional
# T4 sequence (Q8IL11 whole entry): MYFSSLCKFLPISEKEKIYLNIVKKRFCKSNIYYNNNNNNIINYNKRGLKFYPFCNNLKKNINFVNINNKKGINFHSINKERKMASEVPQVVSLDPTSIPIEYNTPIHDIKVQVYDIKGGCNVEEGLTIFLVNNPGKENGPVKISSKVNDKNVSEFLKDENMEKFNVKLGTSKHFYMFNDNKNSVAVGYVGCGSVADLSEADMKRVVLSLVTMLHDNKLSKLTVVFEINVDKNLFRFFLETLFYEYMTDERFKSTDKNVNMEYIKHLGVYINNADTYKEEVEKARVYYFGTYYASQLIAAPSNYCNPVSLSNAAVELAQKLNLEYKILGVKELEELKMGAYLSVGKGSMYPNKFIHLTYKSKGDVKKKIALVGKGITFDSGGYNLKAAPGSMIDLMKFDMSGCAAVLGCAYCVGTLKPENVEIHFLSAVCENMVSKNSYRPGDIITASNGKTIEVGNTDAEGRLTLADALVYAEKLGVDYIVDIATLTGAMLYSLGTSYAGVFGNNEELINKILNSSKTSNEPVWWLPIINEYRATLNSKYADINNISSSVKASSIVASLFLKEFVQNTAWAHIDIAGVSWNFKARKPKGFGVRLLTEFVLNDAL
# [5] = Luminescence Cell-Based Dose Response HTS to Identify Activators of Luciferase Translation or Activity in H4 […] Cells. [Related pubchem assays: 1829 (Project Summary), 1814 (Primary HTS)]; format: functional
# H4 = test: Luminescence Cell-Based Dose Response HTS to Identify Activators of 5'UTR Stem-Loop Driven Prion Protein mRNA Translation in H4 Neuroglioblastoma Cells. [Related pubchem assays: 1829 (Project Summary), 1814 (Primary HTS)]; format: functional; settings: Homo sapiens
# Cytochrome P450 2C9 = Cytochrome P450 2C9 (Homo sapiens, UniProt P11712)
# Cytochrome P450 2C9, sequence (P11712 whole entry): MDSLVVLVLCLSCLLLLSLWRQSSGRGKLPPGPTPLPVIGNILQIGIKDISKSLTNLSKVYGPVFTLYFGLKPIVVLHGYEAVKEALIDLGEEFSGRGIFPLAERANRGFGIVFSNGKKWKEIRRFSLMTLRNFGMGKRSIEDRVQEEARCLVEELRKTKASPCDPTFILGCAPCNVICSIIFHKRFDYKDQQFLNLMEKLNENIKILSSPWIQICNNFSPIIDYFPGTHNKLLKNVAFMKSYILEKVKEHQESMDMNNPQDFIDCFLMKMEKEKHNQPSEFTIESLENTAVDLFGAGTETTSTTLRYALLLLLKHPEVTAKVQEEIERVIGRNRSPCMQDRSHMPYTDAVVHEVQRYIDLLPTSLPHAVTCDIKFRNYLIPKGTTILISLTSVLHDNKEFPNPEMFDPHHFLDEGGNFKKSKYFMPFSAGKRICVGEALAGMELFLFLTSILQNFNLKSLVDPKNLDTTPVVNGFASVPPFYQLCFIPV
# [6] = Luminescence Cell-Based Dose Confirmation HTS to Identify Activators of 5'UTR Stem-Loop Driven Alpha-Synuclein mRNA Translation in H4 Neuroglioblastoma Cells. [Related pubchem assays: 1829 (Project Summary), 1814 (Primary HTS)]; format: functional
# Cytochrome P450 1A2 = target: T5, Cytochrome P450 1A2 (Homo sapiens, UniProt P05177);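 note: PubChem cytochrome P450 panel assay, CYP1A2 panel member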
# T5 sequence (P05177 whole entry): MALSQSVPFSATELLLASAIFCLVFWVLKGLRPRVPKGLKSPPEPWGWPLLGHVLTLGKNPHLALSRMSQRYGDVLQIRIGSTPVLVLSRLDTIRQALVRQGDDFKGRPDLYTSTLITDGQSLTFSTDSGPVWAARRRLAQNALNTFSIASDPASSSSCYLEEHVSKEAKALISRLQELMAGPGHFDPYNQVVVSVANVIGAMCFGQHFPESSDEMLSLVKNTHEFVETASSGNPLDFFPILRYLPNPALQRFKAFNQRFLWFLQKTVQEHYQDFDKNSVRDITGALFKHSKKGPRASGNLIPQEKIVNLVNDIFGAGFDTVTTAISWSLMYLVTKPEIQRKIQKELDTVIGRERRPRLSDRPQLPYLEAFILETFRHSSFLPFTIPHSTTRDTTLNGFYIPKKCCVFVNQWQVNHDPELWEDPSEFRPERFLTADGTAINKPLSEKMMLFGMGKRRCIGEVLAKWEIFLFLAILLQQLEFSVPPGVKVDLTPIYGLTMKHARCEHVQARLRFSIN
# cells = format: functional
# [7] = target: T6, Corticotropin-releasing factor receptor 2/Corticotropin-releasing factor-binding protein (Homo sapiens, UniProt P24387+Q13324); test: activators of CRF receptor 2 with binding protein – uHTS hits, confirmation (AID 602473); format: functional; settings: read-out: EC50_Mean
# T6 sequence (Q13324 whole entry): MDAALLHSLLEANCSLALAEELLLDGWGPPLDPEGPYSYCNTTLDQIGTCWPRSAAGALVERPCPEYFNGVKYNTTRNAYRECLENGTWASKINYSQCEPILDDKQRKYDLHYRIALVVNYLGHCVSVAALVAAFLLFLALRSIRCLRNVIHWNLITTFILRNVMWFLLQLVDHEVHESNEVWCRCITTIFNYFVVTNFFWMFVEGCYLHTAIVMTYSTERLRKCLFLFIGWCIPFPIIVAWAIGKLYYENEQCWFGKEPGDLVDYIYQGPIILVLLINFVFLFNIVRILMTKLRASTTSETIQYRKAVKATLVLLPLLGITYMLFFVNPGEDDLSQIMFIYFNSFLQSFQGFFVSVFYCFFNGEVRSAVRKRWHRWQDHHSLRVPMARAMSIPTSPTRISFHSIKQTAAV
# T6 sequence (P24387 whole entry): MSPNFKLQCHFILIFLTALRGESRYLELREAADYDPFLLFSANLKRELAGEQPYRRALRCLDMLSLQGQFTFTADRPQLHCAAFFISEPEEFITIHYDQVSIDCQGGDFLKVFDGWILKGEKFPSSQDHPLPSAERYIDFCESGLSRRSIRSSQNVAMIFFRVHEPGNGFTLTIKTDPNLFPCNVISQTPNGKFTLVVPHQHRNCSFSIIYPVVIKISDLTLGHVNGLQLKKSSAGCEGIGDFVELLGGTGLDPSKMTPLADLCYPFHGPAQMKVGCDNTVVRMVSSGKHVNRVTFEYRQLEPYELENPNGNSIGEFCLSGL
# [8] = viability of HCT116 lacking mutant beta-catenin – cell-based, human colon tumor, dose response (AID 1045); format: functional;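 note: HCT116 colon tumor cells with beta catenin knocked out; cells exposed to compound for 60 hours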
# [9] = non-specific 3'UTR reporter inhibition in Clone20-Shn3RL – cell-based, Renilla luciferase, cherry-picked, counter-screen for Shn3 inhibitor project, dose response (AID 624133); format: functional
# [10] = viability of PTEN-deleted HCT116 cells – cell-based, HCT116 PTEN knockout, dose response (AID 1047); format: functional;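 note: HCT116 colon tumor cells with PTEN knocked out; cells exposed to compound for 60 hours before readout; potency for loss of cell viability measured by luminescence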
# INS1 = test: INS-1E survival protection against cytokine death – cell-based, luminescence, retest, dose response (AID 449756); format: functional; settings: Rattus norvegicus;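 note: cell death triggered by IL-1 beta plus TNF-alpha plus IFN-gamma mixture; protective hits raise ATP signal compared with cytokine alone wells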
# [11] = reduction of Shn3 3'UTR-driven luciferase in osteoblasts – cell-based, Clone20 osteoblasts, firefly luciferase, cherry-picked, dose response (AID 624132); format: functional;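 note: firefly luciferase luminescence from reporter carrying the Shn3 3'UTR in osteoblasts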
# [12] = loss of viability in HepG2 cells – cell-based, CellTiter-Glo, cherry-picked, cytotoxicity control for Shn3 inhibitor project, dose response (AID 624134); format: functional
# [13] = OVCAR8 cell viability loss – plate reader, dry powder samples, PAX8 project, dose response (AID 743197); format: functional, cell-based; settings: OVCAR-8
# Paired box protein Pax-8 = Paired box protein Pax-8 (Homo sapiens, UniProt Q06710); test: PAX8 transcriptional activity inhibition in RMG-I – RMG-I cells, luciferase, cherry-pick, dose response (AID 687027); format: functional, cell-based;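 note: luciferase reporter driven by Pax8 target thyroperoxidase promoter measured by SteadyGlo luminescence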
# Paired box protein Pax-8, sequence (Q06710 whole entry): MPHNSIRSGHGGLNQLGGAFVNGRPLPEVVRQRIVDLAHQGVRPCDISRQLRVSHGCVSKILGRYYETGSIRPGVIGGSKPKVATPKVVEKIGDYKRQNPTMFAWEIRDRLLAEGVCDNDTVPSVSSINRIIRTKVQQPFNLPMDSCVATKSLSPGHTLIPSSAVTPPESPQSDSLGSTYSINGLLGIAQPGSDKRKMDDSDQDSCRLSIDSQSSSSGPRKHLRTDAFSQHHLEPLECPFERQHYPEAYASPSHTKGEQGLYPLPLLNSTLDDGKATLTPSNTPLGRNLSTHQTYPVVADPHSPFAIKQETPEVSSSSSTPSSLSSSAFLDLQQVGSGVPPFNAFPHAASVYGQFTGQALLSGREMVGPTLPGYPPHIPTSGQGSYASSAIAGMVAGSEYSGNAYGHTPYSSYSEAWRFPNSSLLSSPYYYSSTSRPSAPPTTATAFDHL
smiles,measurement,setting,value
CC1CCN(CC2C(=O)O[C@@H]3C[C@@]4(C)CCC[C@H](C)C4=C[C@H]23)CC(C)(C)C1 (some centres not stated),AC50,[1],16.1 µM (active)
CCN(CC)CCNC(=O)c1c(C)n(-c2ccccc2)c2cc(Br)c(OC)cc12,IC50,[2],> 20 µM (inactive)
same,AC50,[1],12.9 µM (active)
O=C(Nc1ccc(N2CCCC2)c(S(=O)(=O)Nc2cccc(C(F)(F)F)c2)c1)c1cccs1,EC50,Streptokinase A,> 150 µM (not active)
same,EC50,Streptococcus,10.5 µM (active)
same,EC50,[3],3.38 µM (active)
same,IC50,[4],> 69.5 µM (inactive)
CCOc1ccc(NC(=O)CSc2nnc[nH]2)c([N+](=O)[O-])c1,IC50,Leucine aminopeptidase,5.46 µM (active)
O=C(NCC(=O)N1CCCC1C(=O)O)OC1CCCCC1 (configuration not stated),IC50,Leucine aminopeptidase,39 µM (active)
O=C(CN1C(=O)C2C3C=CC(C3)C2C1=O)Nc1ccc2c(c1)OCCO2 (configuration not stated),EC50,[5],22.4 µM (active)
same,EC50,H4,19 µM (active)
same,AC50,Cytochrome P450 2C9,0.316 µM (inconclusive)
same,IC50,Leucine aminopeptidase,21 µM (active)
same,EC50,[6],15.1 µM (active)
same,AC50,Cytochrome P450 1A2,15.8 µM (inconclusive)
COc1cc(OC)c2c(OC)cccc2n1,IC50,cells,30.1 µM (active)
CC(=O)c1ccc(N2CCC(c3cc(-c4ccc(Cl)cc4Cl)n[nH]3)CC2)c([N+](=O)[O-])c1,EC50,Streptokinase A,> 150 µM (not active)
same,AC50,Cytochrome P450 1A2,14.1 µM (inconclusive)
same,IC50,[4],> 69.5 µM (inactive)
Cc1cccc(C(=O)NC(=S)NNC(=O)COc2c(C)cccc2C)c1,EC50,[7],1.65 µM (active)
same,IC50,Leucine aminopeptidase,59.1 µM (active)
O=C(c1cn[nH]c1)c1cc(F)ccc1O,IC50,Leucine aminopeptidase,20.9 µM (active)
CCCOC(=O)c1ccc(NC(=O)c2ccc(Br)o2)cc1,IC50,cells,30.5 µM (active)
C#CCn1/c(=N/C(=O)c2ccc(S(=O)(=O)N3CCc4ccccc4C3)cc2)sc2cc(S(N)(=O)=O)ccc21,EC50,[8],1.31 µM (active)
same,AC50,[9],23.9 µM (active)
same,EC50,[10],1.62 µM (active)
same,AC50,INS1,2.68 µM (active)
same,AC50,[11],1.29 µM (active)
same,AC50,[12],37.3 µM (active)
CC(/C=C/c1ccccc1)=N\NC(=O)c1ccc2c(c1)OCCO2,IC50,cells,25.7 µM (active)
Cc1ccc(S(=O)(=O)Nc2ccc3c(c2)C(=O)N([C@H](C)CO)C[C@@H](C)[C@H](CN(C)S(=O)(=O)c2ccc(Cl)cc2)OCCCC[C@H](C)O3)cc1,AC50,[13],> 70 µM (inactive)
same,AC50,Paired box protein Pax-8,8.13 µM (active)

# From ChEMBL document CHEMBL1201862, “PubChem BioAssay data set” (2004)
